Values quoted from earlier work in US20140315941A1, “METHOD OF REDUCING CNS AND GASTRO[…] AFFECTS ASSOCIATED WITH LONG-TERM, DEXTROMETHORPHAN/LOW-DOSE QUINIDINE COMBINATION THERAPY” (Avanir Pharmaceuticals, Inc., priority 2009, published 2014).

How the values were obtained:
[1] = tested on: pain threshold in CYP2D6 extensive and poor metabolizers; conditions: extensive vs poor metabolizers
[2] = some patients with Huntington's disease; DM doses eight times the maximum antitussive dose
CYP2D6 = CYP2D6 (Homo sapiens, UniProt P10635); conditions: in vitro
Sequence of CYP2D6 (P10635 whole entry): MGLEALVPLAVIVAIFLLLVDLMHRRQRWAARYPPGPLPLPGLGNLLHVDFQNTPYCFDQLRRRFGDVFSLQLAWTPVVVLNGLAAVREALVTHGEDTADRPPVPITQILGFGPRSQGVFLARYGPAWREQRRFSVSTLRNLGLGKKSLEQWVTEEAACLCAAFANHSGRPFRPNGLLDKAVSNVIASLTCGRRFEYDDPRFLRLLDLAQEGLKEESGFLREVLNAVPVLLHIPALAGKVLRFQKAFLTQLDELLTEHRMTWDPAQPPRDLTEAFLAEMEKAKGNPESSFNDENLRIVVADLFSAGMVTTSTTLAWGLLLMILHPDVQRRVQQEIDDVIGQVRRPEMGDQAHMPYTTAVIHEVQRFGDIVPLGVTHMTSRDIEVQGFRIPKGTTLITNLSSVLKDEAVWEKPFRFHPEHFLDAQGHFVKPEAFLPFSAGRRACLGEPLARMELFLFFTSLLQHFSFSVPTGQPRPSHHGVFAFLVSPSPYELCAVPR

Row | Compound | antinociceptive effects (increase of pain threshold) [1] | plasma concentrations [2] | inhibition of CYP2D6 activity (potency, words) (CYP2D6)
1 | COc1ccc2c(c1)[C@]13CCCCC1[C@H](C2)N(C)CC3 (single isomer, unassigned; (+)) [DM, (+)-3-methoxy-N-methylmorphinan] | significant in poor metabolizers but not in extensive metabolizers | undetectable | –
2 | C=C[C@H]1C[N@@]2CC[C@H]1C[C@@H]2[C@@H](O)c1ccnc2ccc(OC)cc12 [Quinidine, quinidine] | – | – | one of the most potent
